This note sets out measurements from patent US4824868A, “Propylamine derivatives useful for the treatment of dementia” (Ciba-Geigy Corporation, priority 1987, dated 1989).

Where a name gives a salt, the structure may show the parent alone.

The test system of assay [1] is norepinephrine (NE) uptake, rat whole brain synaptosomes. Briefly: Inhibition of tritiated norepinephrine uptake into synaptosomes from rat whole brain in vitro. The format is biochemical. The note with it: 3H-NE. The method, then:
(§1) Compounds of the previous examples are tested for their ability to block the uptake of tritiated serotonin into synaptosomal nerve endings from rat whole brain in vitro essentially by the method of Thornburg and Moore as described in Res. Comm. Chem. Pathol. Pharmacol. 5, 81 (1973). The preincubation period of the test compound (added in ethanol solution) with the whole brain synaptosome suspension in Krebs buffer is 5 minutes. The incubation period, following the addition of tritiated serotonin (^3 H-5-HT) to a final concentration of about 1×10^-7 M, is 4 minutes. The concentration of test agent required to inhibit serotonin uptake by 50% of control value i.e. the IC50, is determined graphically and expressed in micromolar concentration.
The concentration of test agent required to inhibit norepinephrine (NE) uptake by 50% of the control value, i.e., the IC50 is similarly determined using tritiated norepinephrine (^3 H-NE) and is also expressed in micromolar concentration.

The test system of assay [2] is serotonin (5-HT) uptake, rat whole brain synaptosomes. Briefly: Inhibition of tritiated serotonin uptake into synaptosomes from rat whole brain in vitro. To be noted: for IC50: rat whole brain synaptosomes, 3H-5-HT about 1×10^-7 M, 5 min preincubation, 4 min incubation. Format: biochemical. The method, then: as §1
In another assay the test system is serotonin uptake. Briefly: H 75/12 test: inhibition of the serotonin depleting effect of H 75/12 in rat brain. Format: in vivo. The note with it: for ED50: oral, 30 minutes before H 75/12 (25 mg/kg s.c.), 4 hours. The method, then: The inhibition of the serotonin depleting effect of 3-hydroxy-4-methyl-α-ethylphenethylamine (H 75/12) in rat brain serves as an indirect indication of serotonin uptake inhibitory activity. (Carlsson, Corrodi, Fuxe and Hoekfelt, Europ. J. Pharmacol. 5, 357, 1969). A diminution of serotonin release by H 75/12 is considered to be due to a serotonin uptake inhibitory effect of the test compound. The compound to be tested is administered orally 30 minutes before H 75/12 (25 mg/kg s.c.) and the animals are decapitated 4 hours thereafter. The brains are immdiately taken out and serotonin is determined as described above. The ED50 represents the dose of the test compound inhibiting the serotonin-depleting effect of H75/12 by 50%.

Another assay relates to serotonin (5-HT) uptake. Briefly: Serotonin (5-HT) uptake inhibition in rats pretreated with compounds. Format: in vivo, rat. The method, then: Serotonin (5-HT) uptake inhibition is also determined in rats pretreated with compounds of the instant invention.
Assay [3] deals with serotonin (5-HT) uptake, rat midbrain synaptosomes. The assay is described as follows: Inhibition of 3H-5-HT uptake in rat midbrain synaptosomes in vitro. The format is biochemical. The note with it: rat midbrain-diencephalon synaptosomes; 5-HT 2.5×10^-9 M; 10 minutes. The method, then: The inhibition of serotonin (5-HT) uptake indicative of potential antidepressant activity is determined in rat midbrain synaptosomes in vitro as follows:
Synaptosomes from the rat midbrain-diencephalon region are prepared and the uptake of ^3 H-5-HT measured as described by Baumann and Maitre, Naunyn-Schmiedeberg's Arch. Pharmacol. 300, 31 (1977). The concentration of 5-HT in the incubation medium is 2.5×10^-9 M, and the incubation period is 10 minutes. The concentration of a compound of this invention required to inhibit serotonin uptake by 50%, i.e. the IC50, is determined.

Assay [4] concerns reserpine treated rabbits. Briefly: Reversal of reserpine-induced ptosis in the rabbit. The format is in vivo. The note with it: reserpine 2 mg/kg i.v. 90 minutes before i.v. infusion of 0.2% drug solution. The method, then:
The serotonin uptake inhibiting or serotonin activating properties of the compounds of the invention are indicative of antidepressant properties as determined by the reversal of reserpine-induced ptosis (i.e. […]) in the rabbit. Rabbits are injected intravenously with 2 mg/kg reserpine 90 minutes before the i.v. infusion of 0.2% drug solution into the ear vein according to the method of J. Mizoule et al. (J. Pharmacol., 8, 3, 269-285, 1977). The complete opening of the eye-lids is taken as a criterion for reversal of the reserpine-induced ptosis. The results are expressed in terms of the mean dose of test compound inducing complete opening of the eye-lids in reserpine treated rabbits.

Assay [5] relates to norepinephrine (NE) uptake, rat midbrain synaptosomes. The assay is described as follows: Inhibition of 3H-NE uptake in rat midbrain synaptosomes in vitro. The note with it: rat midbrain-diencephalon synaptosomes; NE 1×10^-8 M; 20 minutes. Format: biochemical. The method, then: The inhibition of norepinephrine (NE) uptake is determined in rat midbrain synaptosomes in vitro as follows:
Synaptosomes from the rat midbrain-diencephalon region are prepared and the uptake of ^3 H-NE is measured as described by Baumann and Maitre, Naunyn-Schmiedeberg's Arch. Pharmacol. 300, 31 (1977). The concenrtration of NE in the incubation medium is 1×10^-8 M, and the incubation period is 20 minutes. The concentration required to inhibit norepinephrine uptake by 50%, i.e. the IC50, is determined.

A word on the IC50: it is the midpoint of a concentration-inhibition curve. Read a low IC50 as greater potency in that assay. Broadly, the ED50 is the dose that gives a 50% effect, or the effect in half of the subjects. As for `CSc1ccc(OCC(Cc2cccc(Cl)c2)CN(C)C)cc1.O=C(O)C(=O)O` (centres unmarked) [Example 2, N,N-dimethyl-2-(3-chlorobenzyl)-3-(4-methylmercaptophenoxy)propylamine oxalate], the IC50 in assay [1] was 5 µM; in assay [2], 0.03 µM. In addition, the ED50 with serotonin uptake was about 1.4 mg/kg.
Consider `CN(C)CC(COc1ccc(C(F)(F)F)cc1)Cc1ccccc1.O=C(O)C(=O)O` (centres unmarked) [Example 1, N,N-dimethyl-2-benzyl-3-(4-trifluoromethylphenoxy)propylamine oxalate], for which the “inhibition of 3H-5HT uptake” value with serotonin (5-HT) uptake (30 mg/kg p.o.) is reported as about 60%. Further, the IC50 was about 0.015 µM in assay [3], 15.2 µM in assay [1], 0.49 µM in assay [2] and about 3 µM in assay [5]. Moreover, the “mean dose inducing complete opening of the eye-lids” value (shortened to “mean dose inducing complete opening”) in assay [4] is about 12.6 mg/kg i.v. The ED50 in the assay with serotonin uptake was about 4.5 mg/kg.
Turning to `COc1ccc(SCC(Cc2ccccc2)CN(C)C)cc1` (centres unmarked) [3/9], the IC50 in assay [1] was found to be 8.1 µM; in assay [2], 1.53 µM.
For `Cc1ccc(OCC(Cc2ccccc2)CN(C)C)cc1` (centres unmarked) [3/7] the same measures were 12.5 µM and 1.22 µM.
For `Cc1cccc(OCC(Cc2ccccc2)CN(C)C)c1` (centres unmarked) [3/8] the same measures were 3.25 µM and 1.25 µM.
In the case of `CNCC(COc1ccc(C(F)(F)F)cc1)Cc1ccccc1.O=C(O)C(=O)O` (centres unmarked) [N-methyl-2-benzyl-3-(4-trifluoromethylphenoxy)-propylamine oxalate], in the assay with serotonin (5-HT) uptake (10 mg/kg p.o.), the “inhibition of 3H-5HT uptake” value was about 50%. The IC50 in assay [3] is about 0.01 µM; in assay [5], about 2 µM. Further, the “mean dose inducing complete opening” value in assay [4] is about 12.9 mg/kg i.v. The molecule further registered a 50% effective dose (ED50) in the assay with serotonin uptake of about 1.8 mg/kg.
For `CN(C)CC(COc1ccccc1Cl)Cc1ccccc1` (centres unmarked) [3/3], the IC50 in assay [1] was found to be 5.3 µM; in assay [2], 1.3 µM.
For `CNCC(COc1ccc(OC)cc1)Cc1ccccc1` (centres unmarked) [6/1], in that order: 1.25 µM and 0.44 µM.
With `CSc1ccc(OCC(Cc2ccccc2)CN(C)C)cc1.O=C(O)C(=O)O` (centres unmarked) [3/2, N,N-dimethyl-2-benzyl-3-(4-methylmercaptophenoxy)-propylamine oxalate], the “inhibition of 3H-5HT uptake” value in the assay on serotonin (5-HT) uptake (30 mg/kg p.o.) is given as “about 80%”. For the same molecule, the IC50 in assay [3] was about 0.03 µM; in assay [1] it was 10.8 µM; in assay [2], 0.27 µM; in assay [5], about 0.5 µM. For the same molecule, in assay [4], the “mean dose inducing complete opening” value is reported as “about 7.7 mg/kg i.v”. This molecule had an ED50 in the assay with serotonin uptake of about 2.3 mg/kg.
On to `CSc1ccc(OCC(Cc2ccc(Cl)cc2)CN(C)C)cc1` (centres unmarked) [3/14], for which the IC50 stood at 7.1 µM in assay [1] and 0.67 µM in assay [2].
For `C=CCOc1cccc(OCC(Cc2ccccc2)CN(C)C)c1` (centres unmarked) [3/13] the same measures were 1.44 µM and 0.59 µM.
For `CN(C)CC(COc1cccc(Cl)c1)Cc1ccccc1` (centres unmarked) [3/6] the same measures were 16.1 µM and 2.7 µM.
For `CNCC(COc1ccc(C(F)(F)F)cc1)Cc1ccccc1` (centres unmarked) [Example 4, N-methyl-2-benzyl-3-(4-trifluoromethylphenoxy)propylamine hydrochloride] the same measures were 12.6 µM and 0.39 µM.
Regarding `CNCC(COc1ccc(SC)cc1)Cc1ccccc1` (centres unmarked) [6/2, N-methyl-2-benzyl-3-(4-methylthiophenoxy)propylamine], the figures for the IC50 in assay [1] and in assay [2] were 2.5 µM and 0.14 µM, respectively.
For `CNCC(COc1ccc(SC)cc1)Cc1cccc(Cl)c1` (centres unmarked) [6/3], in that order: 11 µM and 2.7 µM.
For `CN(C)CC(COc1ccc(Cl)cc1)Cc1ccccc1` (centres unmarked) [3/4] the same measures were 12 µM and 1.49 µM.
In the case of `COc1cccc(SCC(Cc2ccccc2)CN(C)C)c1` (centres unmarked) [3/11], the IC50 in assay [1] came to 7.6 µM; in assay [2], 1.95 µM.
For `COc1cccc(OCC(Cc2ccccc2)CN(C)C)c1` (centres unmarked) [3/1] the same measures were 4.3 µM and 0.43 µM.
`CN(C)CC(COc1cccc(C(F)(F)F)c1)Cc1ccccc1` (centres unmarked) [3/10]: the IC50 in assay [1] was 6.9 µM; in assay [2] it was 2.25 µM.
For `COc1ccc(OCC(Cc2ccccc2)CN2CCCCC2)cc1` (centres unmarked) [3/5], in that order: 39.5 µM and 6.1 µM.
For `CNCC(COc1cccc(OC)c1)Cc1ccccc1` (centres unmarked) [Example 5, N-methyl-2-benzyl-3-(3-methoxyphenoxy)propylamine oxalate] the same measures were 1.39 µM and 0.94 µM.
`CCN(CC)CC(COc1ccccc1)Cc1ccccc1.Cl` (centres unmarked) [Example 16, N,N-diethyl-2-benzyl-3-phenoxypropylamine hydrochloride, reference compound]: the IC50 in assay [3] is 2.2 µM; in assay [1] it was 3.3 µM; in assay [2] it was 7.3 µM; in assay [5], 2 µM. In assay [2] (in vitro, whole brain and midbrain synaptosomes, in words), the “selectivity (serotonin vs norepinephrine uptake) in in vitro tests” value was “no selectivity is seen in in vitro tests”. The “inhibition of the serotonin-depleting effect of H 75/12” value in the assay on serotonin uptake (30 mg/Kg p.o.) was found to be 17%. Moreover, the “in vivo serotonin uptake inhibitory activity” value in the assay with serotonin uptake (30 mg/Kg p.o., in words) is given as “no significant in vivo serotonin uptake inhibitory activity”.
`COc1ccc(OCC(Cc2ccccc2)CN(C)C)cc1` (centres unmarked) [3/16]: the IC50 in assay [1] was 0.57 µM; in assay [2], 0.56 µM.
Regarding `COc1cc(OC)cc(OCC(Cc2ccccc2)CN(C)C)c1` (centres unmarked) [3/12], the concentration for half-maximal inhibition (IC50) in assay [1] worked out at 4.3 µM; in assay [2] it was 1.52 µM.
In the case of `CNCC(COc1ccccc1OC)Cc1ccccc1` (centres unmarked) [Example 8, N-methyl-2-benzyl-3-(2-methoxyphenoxy)propylamine oxalate], the results for the IC50 in assay [1] and in assay [2] were 8.9 µM and 5.4 µM, respectively.
As to `CN(C)CC(COc1ccc(C(F)(F)F)cc1)Cc1cccc(Cl)c1` (centres unmarked) [3/15], the IC50 in assay [1] was 32 µM; in assay [2], 6 µM.
